Measured values from article PMC10619477 (RSC Advances, 2023).
Marks after values point to notes of the source that are not given here.

What was measured:
[1] = DPPH radical scavenging assay; assay type: biochemical; details: for DPPH inhibiting rate: in the presence of 0.5 mM compounds; for IC50: read-out: DPPH (IC50), mean ± SEM, three determinations
[2] = ABTS radical cationic decolorization assay; assay type: biochemical; details: read-out: ABTS (IC50); concentration that inhibits 50% of free radicals, mean ± SEM
[3] = in vitro; details: PAMPA
[4] = from PAMPA-BBB Pe
[5] = test system: MMP in H2O2-incubated SY5Y cells; assay: Mitochondrial membrane potential assay; details: 10 μM, 100 μM H2O2 24 h, JC-1
[6] = test system: SH-SY5Y cells; details: MTT; for Cytotoxicity on SH-SY5Y cells (in words): 0–80 μM
[7] = test system: intracellular GSH in H2O2-injured SY5Y cells; assay: Total glutathione; assay type: cell-based, Human; details: pretreatment with 10 μM, 100 μM H2O2
[8] = test system: SH-SY5Y cells exposed to 100 μM H2O2; assay: Protection of SH-SY5Y cells from H2O2-induced oxidative damage; assay type: cell-based, Human
[9] = test system: intracellular ROS in H2O2-injured SY5Y cells; assay: Intracellular ROS levels; assay type: cell-based, Human; details: 0.1, 1 or 10 μM, 100 μM H2O2 24 h, DCFH-DA

| Molecule | IC50 [1] [µM] | IC50 [2] [µM] | Papp at 16 h, 100 mg mL^−1 [3] [×10⁻⁶ cm/s] | Prediction (penetration into CNS) [4] | also measured |
| --- | --- | --- | --- | --- | --- |
| CCCCCCCC(=O)NCc1ccc(OC)c(OC)c1 [Compound 3j, N-(3,4-Dimethoxybenzyl)octanamide] |  |  |  |  | DPPH radical scavenging activity (in words) [1]: little radical scavenging activities; DPPH inhibiting rate [1]: 22.72 ± 5.47% ^c |
| CCCCCCCCC(=O)NCc1ccc(O)c(OC)c1 [Compound 3l, N-(4-Hydroxy-3-methoxybenzyl)nonanamide] | 27.2 ± 3.47 | 44.2 ± 4.65 |  |  |  |
| Cn1c(=O)c2c(ncn2C)n(C)c1=O [Caffeine, reference compound] |  |  | 0.79 ± 0.1 |  |  |
| CCCCCCC(=O)NCc1ccc(OC)c(OC)c1 [Compound 3e, N-(3,4-Dimethoxybenzyl)heptanamide] |  |  | 10.8 ± 1.03 | CNS+ (CNS+ is predicted as high BBB permeation with Pe (×10^−6 cm s^−1) > 4.33) | DPPH radical scavenging activity (in words) [1]: little radical scavenging activities; DPPH inhibiting rate [1]: 27.33 ± 2.88% ^c |
| CCCCCCNC(=O)Cc1ccc(O)c(OC)c1 [Compound 3f, N-Hexyl-2-(4-hydroxy-3-methoxyphenyl)acetamide] | 139 ± 6.89 | 13.1 ± 1.47 | 6.24 ± 0.98 | CNS+ (CNS+ is predicted as high BBB permeation with Pe (×10^−6 cm s^−1) > 4.33) |  |
| CCCCCCCC(=O)NCc1ccc(O)c(O)c1 [Compound 3k, N-(3,4-Dihydroxybenzyl)octanamide] | 5.06 ± 1.34 | 10.6 ± 1.28 | 9.23 ± 0.57 | CNS+ (CNS+ is predicted as high BBB permeation with Pe (×10^−6 cm s^−1) > 4.33) | H2O2-induced reduction of MMP (in words) [5]: blocked significantly; Cytotoxicity on SH-SY5Y cells (in words) [6]: little toxicity; H2O2-induced decrease of intracellular GSH (in words) [7]: blocked; cell viability under H2O2 (in words) ([8]; 0.1, 1 or 10 μM pretreatment, 100 μM H2O2): increased dose-dependently; viability at 10 µM ([8]; Homo sapiens, SH-SY5Y, read-out: cell viability): 90 ± 5.5%; intracellular ROS fluorescence intensity (in words) [9]: decreased gradually |
| CC(C)CCCCCCC(=O)NCc1ccc(O)c(O)c1 [Compound 3c, N-(3,4-Dihydroxybenzyl)-8-methylnonanamide] | 7.33 ± 0.98 | 16.8 ± 2.1 | 8.45 ± 0.57 | CNS+ (CNS+ is predicted as high BBB permeation with Pe (×10^−6 cm s^−1) > 4.33) | Cytotoxicity on SH-SY5Y cells (in words) [6]: strong growth inhibition |
| CCCCCCNC(=O)Cc1ccc(OC)c(OC)c1 [Compound 3g, 2-(3,4-Dimethoxyphenyl)-N-hexylacetamide] |  |  | 11.2 ± 0.68 | CNS+ (CNS+ is predicted as high BBB permeation with Pe (×10^−6 cm s^−1) > 4.33) | DPPH radical scavenging activity (in words) [1]: little radical scavenging activities; DPPH inhibiting rate [1]: 12.76 ± 2.54% ^c |
| CCCCCCCCNC(=O)Cc1ccc(OC)c(OC)c1 [Compound 3p, 2-(3,4-Dimethoxyphenyl)-N-octylacetamide] |  |  |  |  | DPPH radical scavenging activity (in words) [1]: little radical scavenging activities; DPPH inhibiting rate [1]: 30.48 ± 3.44% ^c |
| CCCCCCNC(=O)Cc1ccc(O)c(O)c1 [Compound 3h, 2-(3,4-Dihydroxyphenyl)-N-hexylacetamide] | 4.49 ± 0.74 | 18.6 ± 3.03 | 7.68 ± 0.47 | CNS+ (CNS+ is predicted as high BBB permeation with Pe (×10^−6 cm s^−1) > 4.33) |  |
| 2-(3,4-Dimethoxyphenyl)-N-octylacetamide [Compound 3d] | 67.6 ± 4.74 | 24.3 ± 3.62 |  |  |  |
| CCCCCCCCNC(=O)Cc1ccc(O)c(OC)c1 [Compound 3o, 2-(4-Hydroxy-3-methoxyphenyl)-N-octylacetamide] | 185 ± 9.86 | 30.9 ± 2.79 |  |  |  |
| COc1cc(CNC(=O)CCCCCCC(C)C)ccc1O [Compound 3b, Dihydrocapsaicin] | 50.9 ± 4.08 | 11.3 ± 1.55 | 5.96 ± 0.78 |  |  |
| C[C@]12CC[C@@H]3c4ccc(O)cc4CC[C@H]3[C@@H]1CC[C@@H]2O [Estradiol, reference compound] |  |  | 13.2 ± 0.51 |  |  |
| COc1cc(CNC(=O)CCCC/C=C/C(C)C)ccc1O [Compound 3a, capsaicin, reference compound] | 52.1 ± 3.21 | 16.9 ± 1.64 |  |  |  |
| CCCCCCCCC(=O)NCc1ccc(O)c(O)c1 [Compound 3n, N-(3,4-Dihydroxybenzyl) nonanamide] | 5.91 ± 0.77 | 22.7 ± 2.34 | 10.1 ± 0.34 | CNS+ (CNS+ is predicted as high BBB permeation with Pe (×10^−6 cm s^−1) > 4.33) | Cytotoxicity on SH-SY5Y cells (in words) [6]: strong growth inhibition |
| O=c1c(O)c(-c2ccc(O)c(O)c2)oc2cc(O)cc(O)c12 [Quercetin, reference compound] | 8.7 ± 1.75 | 13.8 ± 2.87 |  |  |  |
| CCCCCCCC(=O)NCc1ccc(O)c(OC)c1 [Compound 3i, N-(4-Hydroxy-3-methoxybenzyl) octanamide] | 27.9 ± 4.55 | 13.6 ± 2.9 |  |  |  |
| CCCCCCCCNC(=O)Cc1ccc(O)c(O)c1 [Compound 3q, 2-(3,4-Dihydroxyphenyl)-N-octylacetamide] | 4.14 ± 1.09 | 21.6 ± 3.69 | 6.54 ± 0.81 | CNS+ (CNS+ is predicted as high BBB permeation with Pe (×10^−6 cm s^−1) > 4.33) | Cytotoxicity on SH-SY5Y cells (in words) [6]: strong growth inhibition |
| OO [Compound H2O2, H2O2, reference compound] |  |  |  |  | inhibition in SH-SY5Y cells ([6]; H2O2 at 100 μM): 38.1 ± 7.6%; effect on SH-SY5Y cell viability (in words) ([6]; H2O2 at 25 and 50 μM): no apparent inhibitory or promotive effects; cell viability of H2O2-treated SY5Y cells ([8]; 100 μM H2O2 alone, compared with control (100%)): 63.3 ± 4.5% |
| CCCCCCCCC(=O)NCc1ccc(OC)c(OC)c1 [Compound 3m, N-(3,4-Dimethoxybenzyl)nonanamide] |  |  | 10.6 ± 0.38 | CNS+ (CNS+ is predicted as high BBB permeation with Pe (×10^−6 cm s^−1) > 4.33) | DPPH radical scavenging activity (in words) [1]: little radical scavenging activities; DPPH inhibiting rate [1]: 18.56 ± 2.33% ^c |
